Marks after values point to notes of the source that are not given here.

For one test, the system named is circulating lymphocytes in whole blood. In words: number of circulating lymphocytes in whole blood of rats. It counts as in vivo, normotensive male Wistar rats. The conditions noted are these: 6 h after oral administration of 10 mg/kg to normotensive male Wistar rats, compared to group treated with vehicle only. As for the experimental part: Normotensive male Wistar rats are housed in climate-controlled conditions with a 12-hour light/dark cycle, and have free access to normal rat chow and drinking water. Blood (0.5 mL) is collected by retro-orbital sampling before drug administration, and 3 and 6 h thereafter. Blood cell count is measured in whole blood using a Beckman-Coulter Synchron CX5 Pro cytometer. Statistical analysis of lymphocyte counts are performed by analysis of variance (ANOVA) using Statistica (StatSoft) and the Student-Newman-Keuls procedure for multiple comparisons. Thus, compounds of the invention decrease the number of circulating lymphocytes in whole blood when compared to pre-drug values.
As for `Cc1ccccc1N1C(=O)/C(=C/c2ccc(OCC(O)CO)c(Cl)c2)S/C1=N\C(C)C` (racemic) [Example 24, rac-5-[3-chloro-4-(2,3-dihydroxy-propoxy)-benz[Z]ylidene]-2-([Z]-isopropylimino)-3-o-tolyl-thiazolidin-4-one], the Lymphocyte counts is listed as −54%.

`Cc1cccc(N2C(=O)/C(=C/c3ccc(OCC(O)CO)c(Cl)c3)S/C2=N\C(C)C)c1C` (racemic) [Example 46, rac-5-[3-chloro-4-(2,3-dihydroxy-propoxy)-benz[Z]ylidene]-3-(2,3-dimethyl-phenyl)-2-([Z]-isopropylimino)-thiazolidin-4-one]: the Lymphocyte counts is given as −37%.

Take `CCC/N=C1\S/C(=C\c2ccc(OCC(O)CO)c(Cl)c2)C(=O)N1c1ccccc1` (racemic) [Example 77, rac-5-[3-chloro-4-(2,3-dihydroxy-propoxy)-benz[Z]ylidene]-3-phenyl-2-([Z]-propylimino)-thiazolidin-4-one]: the Lymphocyte counts is on record as −55%.

Regarding `CCC/N=C1\S/C(=C\c2ccc(OCC(O)CO)c(Cl)c2)C(=O)N1c1ccccc1C` (racemic) [Example 84, rac-5-[3-chloro-4-(2,3-dihydroxy-propoxy)-benz[Z]ylidene]-2-([Z]-propylimino)-3-o-tolyl-thiazolidin-4-one], the Lymphocyte counts is on record as −68%.

As to `CCC/N=C1\S/C(=C\c2ccc(OCC(O)CO)c(Cl)c2)C(=O)N1c1cccc(C)c1C` (racemic) [Example 95, rac-5-[3-chloro-4-(2,3-dihydroxy-propoxy)-benz[Z]ylidene]-3-(2,3-dimethyl-phenyl)-2-([Z]-propylimino)-thiazolidin-4-one], the Lymphocyte counts is reported as −53%.

For `CC(C)/N=C1\S/C(=C\c2ccc(OCCO)cc2)C(=O)N1c1ccccc1` [Example 4, 5-[4-(2-Hydroxy-ethoxy)-benz-(Z)-ylidene]-2-[(Z)-isopropylimino]-3-phenyl-thiazolidin-4-one], the Lymphocyte counts was −32%.

With `CC(C)/N=C1\S/C(=C\c2ccc(OCCO)c(Cl)c2)C(=O)N1c1ccccc1` [Example 7, 5-[3-Chloro-4-(2-hydroxy-ethoxy)-benz-(Z)-ylidene]-2-[(Z)-isopropylimino]-3-phenyl-thiazolidin-4-one], the Lymphocyte counts was −67%.

`Cc1cccc(N2C(=O)/C(=C/c3ccc(OCCO)c(Cl)c3)S/C2=N\C(C)C)c1C` [Example 42, 5-[3-chloro-4-(2-hydroxy-ethoxy)-benz[Z]ylidene]-3-(2,3-dimethyl-phenyl)-2-([Z]-isopropylimino)-thiazolidin-4-one]: the Lymphocyte counts is listed as −23%.

For the compound `CCC/N=C1\S/C(=C\c2ccc(OCCO)c(Cl)c2)C(=O)N1c1ccccc1` [Example 75, 5-[3-chloro-4-(2-hydroxy-ethoxy)-benz[Z]ylidene]-3-phenyl-2-([Z]-propylimino)-thiazolidin-4-one], the Lymphocyte counts is −47%.

Regarding `CCC/N=C1\S/C(=C\c2ccc(OCCO)c(C)c2)C(=O)N1c1ccccc1` [Example 76, 5-[4-(2-hydroxy-ethoxy)-3-methyl-benz[Z]ylidene]-3-phenyl-2-([Z]-propylimino)-thiazolidin-4-one], the Lymphocyte counts was −58%.

`CCC/N=C1\S/C(=C\c2ccc(OC[C@H](O)CO)c(Cl)c2)C(=O)N1c1ccccc1C` [Example 85, 5-[3-chloro-4-((2R)-2,3-dihydroxy-propoxy)-benz-(Z)-ylidene]-2-[(Z)-propylimino]-3-o-tolyl-thiazolidin-4-one]: the Lymphocyte counts was −63%.

Consider `CCC/N=C1\S/C(=C\c2ccc(OCCO)c(Cl)c2)C(=O)N1c1cccc(C)c1C` [Example 91, 5-[3-chloro-4-(2-hydroxy-ethoxy)-benz[Z]ylidene]-3-(2,3-dimethyl-phenyl)-2-([Z]-propylimino)-thiazolidin-4-one], for which the Lymphocyte counts is given as −35%.

As to `CN(C)N=C1SC(=Cc2ccc(OCCO)cc2)C(=O)N1c1ccccc1` [Example 100, 2-(dimethyl-hydrazono)-5-[4-(2-hydroxy-ethoxy)-benz[Z]ylidene]-3-phenyl-thiazolidin-4-one], the Lymphocyte counts is on record as −53%.

As to `CC/N=C1\S/C(=C\c2ccc(OCCO)c(Cl)c2)C(=O)N1c1ccccc1` [Example 103, 5-[3-chloro-4-(2-hydroxy-ethoxy)-benz[Z]ylidene]-2-([Z]-Ethylimino)-3-phenyl-thiazolidin-4-one], the Lymphocyte counts was −47%.

`CC/N=C1\S/C(=C\c2ccc(OCCO)c(Cl)c2)C(=O)N1c1cccc(C)c1C` [Example 110, 5-[3-chloro-4-(2-hydroxy-ethoxy)-benz[Z]ylidene]-3-(2,3-dimethyl-phenyl)-2-([Z]-ethylimino)-thiazolidin-4-one]: the Lymphocyte counts is on record as −30%.

For `CC(C)/N=C1\S/C(=C\c2ccc(OCCO)c(Cl)c2)C(=O)N1C(C)C` [Example 130, 5-[3-chloro-4-(2-hydroxy-ethoxy)-benz[Z]ylidene]-3-isopropyl-2-([Z]-isopropylimino)-thiazolidin-4-one], the Lymphocyte counts was −26%.

Staying with this test, now noted: at 3 mg/kg p.o.; 6 h after oral administration to normotensive male Wistar rats, compared to group treated with vehicle only.
Turning to `CCC/N=C1\S/C(=C\c2ccc(OC[C@@H](O)CO)c(Cl)c2)C(=O)N1c1ccccc1C` [Example 86, (S)-5-[3-chloro-4-(2,3-dihydroxy-propoxy)-benz[Z]ylidene]-2-([Z]-propylimino)-3-o-tolyl-thiazolidin-4-one], the Lymphocyte counts is −30* %.
